The source made the active and inactive calls. No cut-off for these calls is given here.
Assays:
[1] = target: T1, Histone-lysine N-methyltransferase SETD7 (Homo sapiens, UniProt Q8WTS6); assay: Inhibition of SET7 (unknown origin) using biotinylated histone polypeptide as substrate in presence of SAM by AlphaLISA assay
T1 sequence (Q8WTS6 whole entry): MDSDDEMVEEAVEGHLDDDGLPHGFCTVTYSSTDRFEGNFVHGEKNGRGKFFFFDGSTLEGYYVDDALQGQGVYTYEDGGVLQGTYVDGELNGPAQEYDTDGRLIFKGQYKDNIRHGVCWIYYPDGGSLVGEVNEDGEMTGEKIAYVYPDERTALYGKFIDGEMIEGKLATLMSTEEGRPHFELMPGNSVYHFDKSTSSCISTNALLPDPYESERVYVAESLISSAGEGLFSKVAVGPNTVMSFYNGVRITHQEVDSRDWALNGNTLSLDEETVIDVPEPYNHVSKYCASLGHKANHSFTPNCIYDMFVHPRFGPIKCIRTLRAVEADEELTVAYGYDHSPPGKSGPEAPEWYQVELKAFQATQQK

[2] = target: T1, Histone-lysine N-methyltransferase SETD7; assay: Binding affinity to SET7 (unknown origin) by SPR analysis
[3] = target: T2, Histone-lysine N-methyltransferase EHMT2 (Homo sapiens) (UniProt Q96KQ7); assay: Inhibition of G9a (unknown origin) at 100 uM
T2 sequence (whole entry): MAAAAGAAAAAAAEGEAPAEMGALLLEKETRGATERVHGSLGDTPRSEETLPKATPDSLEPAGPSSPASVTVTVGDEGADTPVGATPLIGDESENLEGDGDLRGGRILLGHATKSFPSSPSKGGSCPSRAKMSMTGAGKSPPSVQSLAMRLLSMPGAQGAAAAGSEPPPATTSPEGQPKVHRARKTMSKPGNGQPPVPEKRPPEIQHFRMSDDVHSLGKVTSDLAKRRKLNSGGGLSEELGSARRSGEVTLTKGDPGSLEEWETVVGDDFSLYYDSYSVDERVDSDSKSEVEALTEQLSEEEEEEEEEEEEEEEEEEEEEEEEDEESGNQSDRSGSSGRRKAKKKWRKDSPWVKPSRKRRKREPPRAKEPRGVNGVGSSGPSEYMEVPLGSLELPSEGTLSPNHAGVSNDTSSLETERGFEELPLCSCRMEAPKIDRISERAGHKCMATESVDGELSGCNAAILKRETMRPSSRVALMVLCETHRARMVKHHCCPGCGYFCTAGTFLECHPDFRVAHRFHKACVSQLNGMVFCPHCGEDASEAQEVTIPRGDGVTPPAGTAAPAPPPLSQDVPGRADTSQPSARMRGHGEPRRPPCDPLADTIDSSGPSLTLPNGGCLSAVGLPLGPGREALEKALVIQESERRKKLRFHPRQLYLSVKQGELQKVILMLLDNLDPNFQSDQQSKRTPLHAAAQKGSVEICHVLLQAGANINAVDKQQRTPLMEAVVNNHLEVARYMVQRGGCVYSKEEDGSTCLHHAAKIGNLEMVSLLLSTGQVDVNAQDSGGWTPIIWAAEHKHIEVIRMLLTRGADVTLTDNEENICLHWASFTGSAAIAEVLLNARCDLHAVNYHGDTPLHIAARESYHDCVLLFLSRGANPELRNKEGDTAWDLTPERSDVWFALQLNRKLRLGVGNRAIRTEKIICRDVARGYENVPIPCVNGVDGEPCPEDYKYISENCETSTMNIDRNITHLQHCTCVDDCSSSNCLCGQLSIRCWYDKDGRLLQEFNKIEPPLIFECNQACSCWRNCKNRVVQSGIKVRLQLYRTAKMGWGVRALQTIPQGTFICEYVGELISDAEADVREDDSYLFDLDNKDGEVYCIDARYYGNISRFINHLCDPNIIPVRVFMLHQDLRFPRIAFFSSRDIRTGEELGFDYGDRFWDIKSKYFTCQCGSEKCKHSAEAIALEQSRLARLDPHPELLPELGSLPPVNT

[4] = target: T3, Histone-lysine N-methyltransferase SETD7 (Homo sapiens) (UniProt Q8WTS6); assay: Inhibition of SET7 (unknown origin) at 100 uM
T3 sequence (whole entry): T1 sequence (Q8WTS6 whole entry)

HUVEC = assay: Cytotoxicity against HUVEC assessed as reduction in cell viability by Cell Titer-Glo based luminescence assay; conditions: human
[5] = target: Histone-lysine N-methyltransferase, H3 lysine-36 specific (Homo sapiens) (UniProt Q96L73); assay: Inhibition of NSD1 (unknown origin) at 100 uM
Chain of Histone-lysine N-methyltransferase, H3 lysine-36 specific (Homo sapiens) (Q96L73 whole entry): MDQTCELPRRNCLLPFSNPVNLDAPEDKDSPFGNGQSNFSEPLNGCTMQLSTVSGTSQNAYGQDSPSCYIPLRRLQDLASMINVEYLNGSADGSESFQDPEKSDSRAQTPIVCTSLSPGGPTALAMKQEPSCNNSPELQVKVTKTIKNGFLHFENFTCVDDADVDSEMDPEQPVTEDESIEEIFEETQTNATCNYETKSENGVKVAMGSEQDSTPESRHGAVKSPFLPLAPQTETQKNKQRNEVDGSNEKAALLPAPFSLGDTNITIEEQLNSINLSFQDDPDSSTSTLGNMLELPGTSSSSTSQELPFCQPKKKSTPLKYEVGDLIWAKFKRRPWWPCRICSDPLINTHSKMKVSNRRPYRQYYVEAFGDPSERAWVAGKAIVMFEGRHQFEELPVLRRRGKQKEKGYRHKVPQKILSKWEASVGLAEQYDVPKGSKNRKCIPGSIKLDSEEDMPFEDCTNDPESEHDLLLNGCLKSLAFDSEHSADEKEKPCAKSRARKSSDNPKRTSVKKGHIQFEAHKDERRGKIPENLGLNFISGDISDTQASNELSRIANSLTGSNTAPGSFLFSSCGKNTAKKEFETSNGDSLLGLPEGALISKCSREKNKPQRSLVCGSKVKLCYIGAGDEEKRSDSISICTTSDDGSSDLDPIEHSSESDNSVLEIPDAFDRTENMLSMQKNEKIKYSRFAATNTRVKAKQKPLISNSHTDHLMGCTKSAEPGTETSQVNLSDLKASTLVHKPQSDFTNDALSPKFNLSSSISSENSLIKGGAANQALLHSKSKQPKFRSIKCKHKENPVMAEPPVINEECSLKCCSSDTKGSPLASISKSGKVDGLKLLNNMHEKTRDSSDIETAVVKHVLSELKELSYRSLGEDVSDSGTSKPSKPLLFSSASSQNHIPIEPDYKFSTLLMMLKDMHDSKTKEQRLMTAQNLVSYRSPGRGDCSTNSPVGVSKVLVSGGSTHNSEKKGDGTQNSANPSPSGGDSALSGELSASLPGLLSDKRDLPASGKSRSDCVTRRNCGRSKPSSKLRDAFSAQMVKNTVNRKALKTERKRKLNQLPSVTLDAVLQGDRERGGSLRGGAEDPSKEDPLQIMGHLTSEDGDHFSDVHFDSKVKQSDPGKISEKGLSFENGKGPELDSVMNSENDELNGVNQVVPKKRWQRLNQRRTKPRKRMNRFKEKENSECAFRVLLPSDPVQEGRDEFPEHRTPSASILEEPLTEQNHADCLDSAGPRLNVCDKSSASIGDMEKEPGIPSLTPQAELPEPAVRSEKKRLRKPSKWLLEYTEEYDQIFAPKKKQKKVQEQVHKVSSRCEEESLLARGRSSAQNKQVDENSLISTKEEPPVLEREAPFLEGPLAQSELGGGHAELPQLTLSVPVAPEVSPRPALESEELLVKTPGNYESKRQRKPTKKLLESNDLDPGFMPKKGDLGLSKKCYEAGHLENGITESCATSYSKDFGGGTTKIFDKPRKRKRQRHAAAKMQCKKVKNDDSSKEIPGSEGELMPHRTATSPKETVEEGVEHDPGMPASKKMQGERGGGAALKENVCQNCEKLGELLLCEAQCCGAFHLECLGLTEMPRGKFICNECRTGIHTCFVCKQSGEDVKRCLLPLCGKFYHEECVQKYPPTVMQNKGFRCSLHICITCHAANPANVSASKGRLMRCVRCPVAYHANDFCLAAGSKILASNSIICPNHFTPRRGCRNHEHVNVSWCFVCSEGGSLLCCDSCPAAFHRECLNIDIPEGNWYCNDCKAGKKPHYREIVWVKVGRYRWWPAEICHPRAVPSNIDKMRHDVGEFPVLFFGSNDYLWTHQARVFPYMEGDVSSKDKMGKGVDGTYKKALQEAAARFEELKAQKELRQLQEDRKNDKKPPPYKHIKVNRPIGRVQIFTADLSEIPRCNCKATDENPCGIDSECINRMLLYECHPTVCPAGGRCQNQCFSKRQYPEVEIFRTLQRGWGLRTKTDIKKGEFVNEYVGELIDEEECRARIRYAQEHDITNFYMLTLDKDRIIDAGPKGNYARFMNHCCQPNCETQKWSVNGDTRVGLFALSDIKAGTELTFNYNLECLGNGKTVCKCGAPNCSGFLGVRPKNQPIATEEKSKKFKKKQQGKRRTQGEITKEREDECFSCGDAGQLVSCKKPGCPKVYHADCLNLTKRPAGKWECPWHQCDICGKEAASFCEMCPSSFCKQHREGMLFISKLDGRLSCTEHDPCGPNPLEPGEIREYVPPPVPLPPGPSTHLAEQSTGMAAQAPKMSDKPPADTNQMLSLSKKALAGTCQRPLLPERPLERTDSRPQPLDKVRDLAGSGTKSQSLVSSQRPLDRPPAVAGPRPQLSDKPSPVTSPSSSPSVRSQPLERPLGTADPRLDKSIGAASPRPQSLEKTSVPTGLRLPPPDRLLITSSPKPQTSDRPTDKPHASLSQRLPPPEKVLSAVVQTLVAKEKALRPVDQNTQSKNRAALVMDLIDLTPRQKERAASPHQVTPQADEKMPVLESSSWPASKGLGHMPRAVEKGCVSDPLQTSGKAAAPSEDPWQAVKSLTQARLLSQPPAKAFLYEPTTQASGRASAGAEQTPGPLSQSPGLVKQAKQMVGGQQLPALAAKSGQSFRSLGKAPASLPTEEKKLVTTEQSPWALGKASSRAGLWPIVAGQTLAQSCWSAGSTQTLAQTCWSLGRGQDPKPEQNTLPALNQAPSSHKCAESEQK

[6] = target: Histone-lysine N-methyltransferase, H3 lysine-79 specific (Homo sapiens) (UniProt Q8TEK3); assay: Inhibition of DOT1L (unknown origin) at 100 uM
Chain of Histone-lysine N-methyltransferase, H3 lysine-79 specific (Homo sapiens) (Q8TEK3 whole entry, looked up): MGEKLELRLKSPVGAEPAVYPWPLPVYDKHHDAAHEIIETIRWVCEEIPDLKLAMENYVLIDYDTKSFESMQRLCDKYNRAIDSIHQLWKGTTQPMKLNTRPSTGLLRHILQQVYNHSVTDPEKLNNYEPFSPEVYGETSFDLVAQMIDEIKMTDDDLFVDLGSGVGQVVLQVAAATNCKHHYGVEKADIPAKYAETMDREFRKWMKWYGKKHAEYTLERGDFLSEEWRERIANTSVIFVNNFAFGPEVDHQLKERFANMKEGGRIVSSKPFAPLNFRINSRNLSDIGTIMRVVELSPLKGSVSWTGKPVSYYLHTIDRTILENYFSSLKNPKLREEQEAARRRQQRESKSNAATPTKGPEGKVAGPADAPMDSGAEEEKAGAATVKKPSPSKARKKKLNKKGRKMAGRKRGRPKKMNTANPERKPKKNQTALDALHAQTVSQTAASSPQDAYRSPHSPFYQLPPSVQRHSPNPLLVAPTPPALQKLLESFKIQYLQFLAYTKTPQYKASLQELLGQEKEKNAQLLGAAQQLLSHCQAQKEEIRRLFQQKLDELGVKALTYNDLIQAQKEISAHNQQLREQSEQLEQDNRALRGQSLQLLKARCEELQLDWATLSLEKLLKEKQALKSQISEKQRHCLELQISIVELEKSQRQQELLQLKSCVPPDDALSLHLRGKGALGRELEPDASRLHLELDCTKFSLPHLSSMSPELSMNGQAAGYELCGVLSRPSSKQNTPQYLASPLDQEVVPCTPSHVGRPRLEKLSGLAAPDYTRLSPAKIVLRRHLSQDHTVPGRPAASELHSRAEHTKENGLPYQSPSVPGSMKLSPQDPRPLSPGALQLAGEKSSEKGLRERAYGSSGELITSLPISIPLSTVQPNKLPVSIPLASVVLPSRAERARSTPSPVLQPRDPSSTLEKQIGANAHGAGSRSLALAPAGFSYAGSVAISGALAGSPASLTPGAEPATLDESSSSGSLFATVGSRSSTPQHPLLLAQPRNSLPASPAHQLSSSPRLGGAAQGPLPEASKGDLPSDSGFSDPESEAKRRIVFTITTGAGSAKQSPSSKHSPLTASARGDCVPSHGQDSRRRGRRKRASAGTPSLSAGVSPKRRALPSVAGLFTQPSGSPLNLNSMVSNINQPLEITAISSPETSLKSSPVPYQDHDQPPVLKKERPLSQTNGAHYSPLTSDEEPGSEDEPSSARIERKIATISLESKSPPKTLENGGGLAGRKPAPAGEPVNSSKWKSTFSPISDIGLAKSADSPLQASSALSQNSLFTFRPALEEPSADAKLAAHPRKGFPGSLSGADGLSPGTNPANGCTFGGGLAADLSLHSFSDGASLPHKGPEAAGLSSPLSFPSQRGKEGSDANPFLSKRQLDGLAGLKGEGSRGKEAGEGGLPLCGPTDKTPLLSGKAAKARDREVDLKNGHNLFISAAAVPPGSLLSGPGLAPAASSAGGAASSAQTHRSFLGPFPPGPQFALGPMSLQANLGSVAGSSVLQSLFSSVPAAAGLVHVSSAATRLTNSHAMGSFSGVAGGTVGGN

MCF7 = assay: Antiproliferative activity against human MCF7 cells expresses endogenous ER by Cell Titer-Glo based luminescence assay
[7] = target: T4, Histone acetyltransferase KAT8 (Homo sapiens) (UniProt Q9H7Z6); assay: Inhibition of MOF (unknown origin) at 100 uM
T4 sequence (whole entry): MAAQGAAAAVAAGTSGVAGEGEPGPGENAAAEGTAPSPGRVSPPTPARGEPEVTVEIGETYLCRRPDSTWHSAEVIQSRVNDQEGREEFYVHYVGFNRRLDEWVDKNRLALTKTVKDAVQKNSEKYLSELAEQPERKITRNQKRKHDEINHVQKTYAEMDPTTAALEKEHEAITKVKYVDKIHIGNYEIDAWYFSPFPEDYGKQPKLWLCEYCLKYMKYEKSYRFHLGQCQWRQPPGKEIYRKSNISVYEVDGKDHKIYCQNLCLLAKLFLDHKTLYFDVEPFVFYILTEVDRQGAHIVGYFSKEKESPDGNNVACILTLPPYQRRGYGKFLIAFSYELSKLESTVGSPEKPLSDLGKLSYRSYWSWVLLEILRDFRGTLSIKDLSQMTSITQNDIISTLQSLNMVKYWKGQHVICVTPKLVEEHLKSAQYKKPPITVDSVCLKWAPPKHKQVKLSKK

MRC5 = assay: Cytotoxicity against human MRC5 cells assessed as reduction in cell viability by Cell Titer-Glo based luminescence assay
[8] = target: T5, Histone-lysine N-methyltransferase SUV39H1 (Homo sapiens) (UniProt O43463); assay: Inhibition of SUV39H1 (unknown origin) at 100 uM
T5 sequence (whole entry): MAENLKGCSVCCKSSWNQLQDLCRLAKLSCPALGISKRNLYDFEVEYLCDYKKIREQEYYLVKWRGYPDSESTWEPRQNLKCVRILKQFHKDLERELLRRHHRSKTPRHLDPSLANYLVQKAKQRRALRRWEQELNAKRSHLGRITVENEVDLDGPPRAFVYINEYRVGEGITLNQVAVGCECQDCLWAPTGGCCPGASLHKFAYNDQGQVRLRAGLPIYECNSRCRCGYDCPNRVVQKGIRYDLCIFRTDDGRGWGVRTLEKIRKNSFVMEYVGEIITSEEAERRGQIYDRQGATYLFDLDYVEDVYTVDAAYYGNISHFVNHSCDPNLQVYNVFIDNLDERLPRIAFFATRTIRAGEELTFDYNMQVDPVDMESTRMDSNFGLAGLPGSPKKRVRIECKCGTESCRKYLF

[9] = target: T3, Histone-lysine N-methyltransferase SETD7 (Homo sapiens); assay: Inhibition of SET7 in human MCF7 cells assessed as reduction in ERalpha protein expression by Western blot analysis; type: cell-based

Row | SMILES | IC50 [1] | also measured
1 | CC(C)(C)OC(=O)N1CCN(C(=O)c2ccc(-c3ccc(C#N)cc3)cc2)CC1 | > 200 µM | 
2 | COC(=O)c1ccc(C2=CC(=O)C=CC2=O)o1 | 15.9 µM | Kd [2]: 18 µM; inhibition [3]: inactive; inhibition [4]: Active; Activity (HUVEC): Toxic; inhibition [5]: inactive; inhibition [6]: inactive; IC50 (MCF7): 25.8 µM; inhibition [7]: inactive; Activity (MRC5): Toxic; inhibition [8]: inactive; inhibition [9]: Dose-dependent effect
3 | CCCCc1ccc(C2=CC(=O)C=CC2=O)cc1 | > 200 µM | 
4 | COc1ccc(OC)c(-c2ccc(CN3CCCC3)c(N)c2)c1 | > 200 µM | 
5 | Cc1ccc(C2=CC(=O)C=CC2=O)cc1 | > 200 µM | 
6 | CC(C)c1ccc(C2=CC(=O)C=CC2=O)cc1 | > 200 µM | 
7 | N#Cc1ccc(-c2ccc(C(=O)O)cc2)cc1 | > 200 µM | 
8 | COc1ccc(OC)c(-c2ccc(CN3CCCC3)c([N+](=O)[O-])c2)c1 | > 200 µM | 
9 | CN(C)CCNC(=O)c1ccc(-c2ccc(C#N)cc2)cc1 | > 200 µM | 
10 | O=C1C=CC(=O)C(c2ccc(CN3CCOCC3)c(NS(=O)(=O)c3ccc(C(F)(F)F)cc3)c2)=C1 | > 200 µM | 
11 | O=C1C=C(O)C(=O)c2ccccc21 [LAWSONE] | > 200 µM | 
12 | O=C1C=CC(=O)C(c2ccc(CN3CCOCC3)c(NS(=O)(=O)c3ccc(Cl)cc3)c2)=C1 | > 200 µM | 

Continued, in another order:

Row | IC50 [1] | SMILES | also measured
13 | > 200 µM | COC1=CC(=O)c2ccccc2C1=O [2-Methoxy-1,4-naphthoquinone] | 
14 | > 200 µM | N#Cc1cccc(-c2ccc(C(=O)N3CCNCC3)cc2)c1 | 
15 | > 200 µM | O=C1C=CC(=O)C(c2cccc(C(F)(F)F)c2)=C1 | 
16 | > 200 µM | O=C1C=CC(=O)C(c2ccc(CN3CCOCC3)c(NS(=O)(=O)c3ccc([N+](=O)[O-])cc3)c2)=C1 | 
17 | > 200 µM | O=C1C=CC(=O)C(c2ccc(CN3CCCC3)c(NS(=O)(=O)c3ccc(C(F)(F)F)cc3)c2)=C1 | 
18 | > 200 µM | COc1ccc(OC)c(-c2ccc(CN3CCOCC3)c(NS(=O)(=O)c3ccccc3)c2)c1 | 
19 | > 200 µM | N#Cc1cccc(-c2ccc(C(=O)O)cc2)c1 | 
20 | > 200 µM | O=C1C=CC(=O)C(c2ccc(Br)cc2)=C1 | 
21 | > 200 µM | CN(C)CCNC(=O)c1ccc(-c2cccc(C#N)c2)cc1 | 
22 | > 200 µM | Cc1ccc(C2=CC(=O)C=CC2=O)cc1C | 
23 | > 200 µM | CC(C)(C)OC(=O)N1CCN(C(=O)c2ccc(-c3cccc(C#N)c3)cc2)CC1 | 
24 | > 200 µM | COc1ccc(OC)c(-c2ccc(CN3CCCC3)c(NS(=O)(=O)c3ccccc3)c2)c1 | 
25 | > 200 µM | COc1ccc(OC)c(-c2ccc(CN3CCN(C(=O)OC(C)(C)C)CC3)c(N)c2)c1 | 
26 | > 200 µM | COc1ccc(OC)c(-c2ccc(CN3CCN(C(=O)OC(C)(C)C)CC3)cc2)c1 | 

Source: ChEMBL document CHEMBL4627335, “Lead discovery, chemical optimization, and biological evaluation studies of novel histone methyltransferase SET7 small-molecule inhibitors” (Bioorg Med Chem Lett, 2020)
